Source: patent EP4603105A1, “PHARMACEUTICAL COMPOSITION CONTAINING CYCLIC COMPOUND HAVING SELECTIVE KRAS INHIBITORY EFFECT AGAINST HRAS AND NRAS” (CHUGAI SEIYAKU KABUSHIKI KAISHA, priority 2022, dated 2024)
Like-named read-outs stand apart in the source and are kept apart here.

What was measured:
[1] = system: human lung cancer strain NCI-H441; assay type: cell-based
Outline: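 Signal came from […] measured per well once the reagent was added. Beforehand, cells were cultured at 37°C and 5% carbon dioxide on a compound series serially diluted in dimethyl sulfoxide.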

[2] = biological target: GDP-bound KRAS wild-type protein (Homo sapiens, UniProt P01116); experiment: Binding to KRAS by surface plasmon resonance (SPR), dissociation constant KD; settings: 1:1 binding model
Outline: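 SPR, 30°C: Avi-biotin RAS·GDP captured via Biotin CAPture (~100–300 RU); running buffer HBS pH 7.4, 1 mM DTT, 10 mM MgCl2, 0.01% Tween 20, 10 µM GDP, 4% DMSO. Single-cycle kinetics, 100 µL/min, 75 s injections; 1:1 model → KD.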

HRAS wild-type protein = HRAS wild-type protein (Homo sapiens, UniProt P01112); experiment: Binding to HRAS by surface plasmon resonance (SPR), KD and KD ratio to KRAS; settings: ratio of KD for HRAS wild-type protein to KD for KRAS
Outline: (§1)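 Measured at 30°C: SPR with GDP-loaded, E. coli-expressed biotin-Avi RAS captured (~100–300 RU), ascending 75 s compound injections, HBS pH 7.4 with GDP, MgCl2, 4% DMSO. KD from 1:1 fit.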

[3] = biological target: GDP-bound NRAS wild-type protein (Homo sapiens, UniProt P01111); experiment: Binding to NRAS by surface plasmon resonance (SPR), KD and KD ratio to KRAS; settings: ratio of KD for GDP-bound NRAS wild-type protein to KD for KRAS
Outline: as §1

Chain of GDP-bound NRAS wild-type protein (P01111 whole entry): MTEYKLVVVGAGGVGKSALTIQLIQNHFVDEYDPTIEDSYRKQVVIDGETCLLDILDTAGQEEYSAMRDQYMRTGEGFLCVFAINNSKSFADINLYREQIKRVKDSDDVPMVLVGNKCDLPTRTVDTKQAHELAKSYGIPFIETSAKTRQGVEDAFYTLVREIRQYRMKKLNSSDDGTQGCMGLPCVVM
Chain of GDP-bound KRAS wild-type protein (P01116 1-188 isoform P01116-2): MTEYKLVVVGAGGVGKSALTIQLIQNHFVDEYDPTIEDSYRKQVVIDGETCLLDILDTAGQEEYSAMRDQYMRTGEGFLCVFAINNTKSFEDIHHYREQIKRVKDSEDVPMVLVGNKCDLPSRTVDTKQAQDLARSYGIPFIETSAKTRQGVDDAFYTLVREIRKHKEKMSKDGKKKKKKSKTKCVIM
Chain of HRAS wild-type protein (P01112 whole entry): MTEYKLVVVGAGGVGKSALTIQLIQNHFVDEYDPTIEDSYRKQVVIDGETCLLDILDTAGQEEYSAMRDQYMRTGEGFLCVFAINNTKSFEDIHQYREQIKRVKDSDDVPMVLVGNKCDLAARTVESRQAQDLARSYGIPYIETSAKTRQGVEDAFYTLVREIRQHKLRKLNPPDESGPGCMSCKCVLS

| Structure (SMILES) | IC50 [1] [nM] | Kd [2] [nM] | HRAS /KRAS (HRAS wild-type protein) | NRAS /KRAS [3] | IC50 ([1]; NCI-H441 cells, 4 days, CellTiter-Glo, read-out: NCl-H441 IC50) [nM] |
| --- | --- | --- | --- | --- | --- |
| CCC[C@H]1C(=O)N[C@@H]([C@@H](C)CC)C(=O)N(C)CC(=O)N(C)[C@H]2C/C=C\CCN(C2=O)[C@@H](Cc2ccc(C)cc2)C(=O)N(C)CC(=O)N[C@@H](CCc2ccc(C(F)(F)F)c(OC)c2)C(=O)N2CC3(CC3)C[C@H]2C(=O)NC2(CC(C)(C)C2)C(=O)N(C)[C@@H](CC(C)(C)C)C(=O)N(C)[C@H](C(=O)N(C)C)CC(=O)N1C [PP3009] | 7.7 | 0.073 | A (a compound having 10 or more and less than 20 is denoted as A) | A (a compound having 10 or more and less than 20 is denoted as A) | – |
| CCC[C@H]1C(=O)N[C@@H](C2CCCC2)C(=O)N(C)CC(=O)N(C)[C@H]2C/C=C\CCN(C2=O)[C@@H](Cc2ccc(C)cc2)C(=O)N(C)CC(=O)N[C@@H](CCc2ccc(C(F)(F)F)c(OC)c2)C(=O)N2CC3(CC3)C[C@H]2C(=O)NC2(CC(C)(C)C2)C(=O)N(C)[C@@H](CC(C)(C)C)C(=O)N(C)[C@H](C(=O)N(C)C)CC(=O)N1C [PP3010] | 18.2 | 0.41 | B (a compound having 3 or more and less than 10 is denoted as B) | B (a compound having 3 or more and less than 10 is denoted as B) | – |
| CCC[C@H]1C(=O)N[C@@H]([C@@H](C)CC)C(=O)N(C)CC(=O)N(C)[C@H]2C/C=C\CCN(C2=O)[C@@H](Cc2ccc(C)cc2)C(=O)N(C)CC(=O)N[C@@H](CCc2ccc(C(F)(F)F)c(OC)c2)C(=O)N2CC3(CC3)C[C@H]2C(=O)NC2(CC(C)(C)C2)C(=O)N(C)[C@@H]([C@@H](C)CC)C(=O)N(C)[C@H](C(=O)N(C)C)CC(=O)N1C [PP3011] | 31.1 | 0.58 | B (a compound having 3 or more and less than 10 is denoted as B) | A (a compound having 10 or more and less than 20 is denoted as A) | – |
| CCC[C@H]1C(=O)N[C@@H]([C@@H](C)CC)C(=O)N(C)CC(=O)N(C)[C@H]2C/C=C\CCN(C2=O)[C@@H](Cc2ccc(C)cc2)C(=O)N(C)CC(=O)N[C@@H](CCc2ccc(C(F)(F)F)c(OC)c2)C(=O)N2CC3(CC3)C[C@H]2C(=O)NC2(CC(C)(C)C2)C(=O)N(C)[C@@H](CC(C)C)C(=O)N(C)[C@H](C(=O)N(C)C)CC(=O)N1C [PP3013] | 29.7 | 0.53 | B (a compound having 3 or more and less than 10 is denoted as B) | AA (a compound having 20 or more is denoted as AA) | – |
| CCC[C@H]1C(=O)N[C@@H](C2CCCCC2)C(=O)N(C)CC(=O)N(C)[C@H]2C/C=C\CCN(C2=O)[C@@H](Cc2ccc(C)cc2)C(=O)N(C)CC(=O)N[C@@H](CCc2ccc(C(F)(F)F)c(Cl)c2)C(=O)N2C[C@H](OCC)C[C@H]2C(=O)NC2(CC(C)(C)C2)C(=O)N(C)[C@@H](CC(C)(C)C)C(=O)N(C)[C@H](C(=O)N(C)C)CC(=O)N1C [PP3018] | 19.1 | 0.32 | B (a compound having 3 or more and less than 10 is denoted as B) | A (a compound having 10 or more and less than 20 is denoted as A) | – |
| CCC[C@H]1C(=O)N[C@@H](C2CCCCC2)C(=O)N(C)CC(=O)N(C)[C@H]2C/C=C\CCN(C2=O)[C@@H](Cc2ccc(C)cc2)C(=O)N(C)CC(=O)N[C@@H](CCc2ccc(C(F)(F)F)c(Cl)c2)C(=O)N2C[C@H](OCC)C[C@H]2C(=O)NC2(CC(C)(C)C2)C(=O)N(C)[C@@H](CC(C)C)C(=O)N(C)[C@H](C(=O)N(C)C)CC(=O)N1C [PP3021] | 76.7 | 1.1 | A (a compound having 10 or more and less than 20 is denoted as A) | AA (a compound having 20 or more is denoted as AA) | – |
| CCC[C@H]1C(=O)N[C@@H](C2CCOCC2)C(=O)N(C)CC(=O)N(C)[C@H]2C/C=C\CCN(C2=O)[C@@H](Cc2ccc(C)cc2)C(=O)N(C)CC(=O)N[C@@H](CCc2ccc(C(F)(F)F)c(Cl)c2)C(=O)N2C[C@H](OCC)C[C@H]2C(=O)NC2(CC(C)(C)C2)C(=O)N(C)[C@@H](CC(C)(C)C)C(=O)N(C)[C@H](C(=O)N(C)C)CC(=O)N1C [PP3026] | 53.6 | 0.66 | A (a compound having 10 or more and less than 20 is denoted as A) | A (a compound having 10 or more and less than 20 is denoted as A) | – |
| CCC(CC)[C@H]1C(=O)N(C)[C@H](C(=O)N2CCCCC2)CC(=O)N(C)[C@H]2CCC/C=C/c3ccc(cc3)C[C@@H](C(=O)N(C)CC(=O)N[C@@H](CCc3ccc(Cl)c(Cl)c3)C(=O)N3CCC[C@H]3C(=O)NC3(CC(C)(C)C3)C(=O)N1C)N1CC/C=C\C[C@@H](C1=O)N(C)C(=O)CN(C)C(=O)[C@H]([C@@H](C)CC)NC2=O [PP3055] | – | 1 | A (a compound having 10 or more and less than 20 is denoted as A) | AA (a compound having 20 or more is denoted as AA) | 69.2 |
| CCO[C@@H]1C[C@H]2C(=O)NC3(CC(C)(C)C3)C(=O)N(C)[C@@H](C3CCCC3)C(=O)N(C)[C@H](C(=O)N(C)CC)CC(=O)N(C)[C@H]3C/C=C/c4ccc(cc4)C[C@@H](C(=O)N(C)CC(=O)N[C@@H](CCc4ccc(Cl)c(Cl)c4)C(=O)N2C1)N1CC/C=C\C[C@@H](C1=O)N(C)C(=O)CN(C)C(=O)[C@H]([C@@H](C)CC)NC3=O [PP3056] | 151 | 1.4 | A (a compound having 10 or more and less than 20 is denoted as A) | A (a compound having 10 or more and less than 20 is denoted as A) | – |
| CCO[C@@H]1C[C@H]2C(=O)NC3(CC(C)(C)C3)C(=O)N(C)[C@@H](C3CCCC3)C(=O)N(C)[C@H](C(=O)N(C)C)CC(=O)N(C)[C@H]3CCCCC/C=C/c4ccc(cc4)C[C@@H](C(=O)N(C)CC(=O)N[C@@H](CCc4ccc(Cl)c(Cl)c4)C(=O)N2C1)N1CC/C=C\C[C@@H](C1=O)N(C)C(=O)CN(C)C(=O)[C@H]([C@@H](C)CC)NC3=O [PP3057] | 8.5 | 0.17 | B (a compound having 3 or more and less than 10 is denoted as B) | A (a compound having 10 or more and less than 20 is denoted as A) | – |
| CCCO[C@@H]1C[C@H]2C(=O)NC3(CC(C)(C)C3)C(=O)N(C)[C@@H](C3CCCC3)C(=O)N(C)[C@H](C(=O)N(C)CC)CC(=O)N(C)[C@H]3CCCc4ccc(cc4)C[C@@H](C(=O)N(C)CC(=O)N[C@@H](CCc4ccc(C(F)(F)F)c(OC)c4)C(=O)N2C1)N1CC/C=C\C[C@@H](C1=O)N(C)C(=O)CN(C)C(=O)[C@H]([C@@H](C)CC)NC3=O [PP3083] | 2.5 | 0.077 | A (a compound having 10 or more and less than 20 is denoted as A) | A (a compound having 10 or more and less than 20 is denoted as A) | – |
| CC[C@H](C)[C@@H]1NC(=O)[C@@H]2CCCc3ccc(cc3)C[C@@H](C(=O)N(C)CC(=O)N[C@@H](CCc3ccc(C(F)(F)F)c(OC)c3)C(=O)N3C[C@H](OC(C)C)C[C@H]3C(=O)NC3(CC(C)(C)C3)C(=O)N(C)[C@@H](C3CCCC3)C(=O)N(C)[C@H](C(=O)N(C)CC)CC(=O)N2C)N2CC/C=C\C[C@@H](C2=O)N(C)C(=O)CN(C)C1=O [PP3084] | 3.7 | 0.12 | B (a compound having 3 or more and less than 10 is denoted as B) | A (a compound having 10 or more and less than 20 is denoted as A) | – |
| CCO[C@@H]1C[C@H]2C(=O)N(C)C3(CC(C)(C)C3)C(=O)N(C)[C@@H](C3CCCC3)C(=O)N(C)[C@H](C(=O)N(C)C)CC(=O)N(C)[C@H]3CCCCCc4ccc(cc4)C[C@@H](C(=O)N(C)CC(=O)N[C@@H](CCc4ccc(C(F)(F)F)c(OC)c4)C(=O)N2C1)N1CC/C=C\C[C@@H](C1=O)N(C)C(=O)CN(C)C(=O)[C@H]([C@@H](C)CC)NC3=O [PP3091] | 1.2 | 0.031 | B (a compound having 3 or more and less than 10 is denoted as B) | A (a compound having 10 or more and less than 20 is denoted as A) | – |
| CCC[C@H]1C(=O)N[C@@H]([C@@H](C)CC)C(=O)N(C)CC(=O)N(C)[C@H]2C/C=C\CCN(C2=O)[C@@H](Cc2ccc(C(F)(F)F)cc2)C(=O)N(C)CC(=O)N[C@@H](CCc2ccc(C(F)(F)F)c(F)c2)C(=O)N2C[C@H](F)C[C@H]2C(=O)NC2(CC(C)(C)C2)C(=O)N(C)[C@@H](C2CCCCC2)C(=O)N(C)[C@H](C(=O)N(C)C)CC(=O)N1C [PP3122] | 11.1 | 0.4 | B (a compound having 3 or more and less than 10 is denoted as B) | A (a compound having 10 or more and less than 20 is denoted as A) | – |
